Here are results for two molecules from patent publication US9932300B2, “N,N′-diarylurea compounds and N,N′-diarylthiourea compounds as inhibitors of translation initiation” (President and Fellows of Harvard College, priority 2009, dated 2018).

SMILES strings stand for the structures. “Also recorded” adds a separate entry of the source.

Data set [1] can be described thus: Solubility in solvents during purification. It counts as physicochemical. The following applies: crude product. How it is done:
Because it could not be purified, this compound was removed from the structure-activity relationship (SAR) study.
As another non-limiting example, 3,4-dichlorophenylisocyanate (250 mg, 1.330 mmol) and 2-amino-4-hydroxy-6-methylpyrimidine (166 mg, 1.330 mmol) were used following the general procedure E to synthesize 28.

Data set [2] relates to eIF2-GTP-Met-tRNAi ternary complex. Briefly: Ternary complex / ATF-4 dual luciferase assay in human cancer cell lines co-transfected with tTA and pBISA-DL(ATF-4) (CRL-2351, PC-3, CRL-2813). It counts as cell-based. The settings on record: CRL-2351 cell line. The method, then: FIGS. 8A-8D depict that N,N′-diarylureas reduce the availability of the eIF2-GTP-Met-tRNAi ternary complex in human cancer cells. A-C) PC-3, CR-L2351, and CRL-2813 human cancer cell lines were co-transfected with pBISA-DL^(ATF-4) and ptTA plasmids. One day post-transfection, the cells were treated with the indicated concentrations of N,N′-diarylureas. Firefly/renilla ratio was determined by DLR assay 8 hours after treatment. D) PC-3, CR-L2351, and CRL-2813 human cancer cell lines were treated with the indicated concentrations of N,N′-diarylureas four 8 hours, and expression of endogenous CHOP mRNA was determined by real-time PCR.
For example, reducing amount of the ternary complex increases translation of ATF-4, which results in elevated expression of CHOP mRNA and protein. Therefore, expression of endogenous CHOP mRNA and CHOP protein in KLN-tTA/pBISA-DL^(ATF-4) cells were utilized as secondary assays to validate N,N′-diarylurea compounds as modifiers of the eIF2⋅GTP⋅Met-tRNAi ternary complex. […] To rule out the possibility that the activity of N,N′-diarylurea compounds was confined to a single cell type, the effects of these compounds on the ternary complex assay and the expression of CHOP mRNA was assayed in CRL-2351, PC-3, CRL-2813 human breast, prostate, and melanoma cancer cell lines respectively. For the reporter gene assay, the three human cell lines were co-transfected with tTA expression vector and the pBISA-DL^(ATF-4) dual luciferase expression vector shown in FIG. 6. […] The expression of CHOP mRNA was assayed by real time PCR in the same cell lines treated with 5 or 20 μM of each compound. […]
Stable and transient transfection: Cells were seeded at the density of 10^5 in 60-mm (stable transfection) or 10^4 cells per well of 96-well plate (transient transfection) plates and transfected one day later using the Qiagen Transfectamine transfection kit. For selection of stable cell lines, transfected cells were transferred to 100-mm plates and selected with appropriate antibiotics.
Dual luciferase assay: Cells or minced tumors expressing firefly and renilla luciferases were lysed and the extracts assayed with a glow type dual luciferase assay kit, per manufacturer's instruction (Promega Inc., Madison, Wis.).

Data set [3] has the same test system. The experiment in a line: Ternary complex assay (dual luciferase, firefly/renilla ratio) in stable KLN-tTA/pBISA-DL(ATF-4) cells; HTS and hit confirmation. Format: cell-based, mouse. The settings on record: designation in figure legend.
Data set [4] has as its system PC-3 human prostate cancer cells. The experiment in a line: Cell proliferation, SRB assay, PC-3. Format: cell-based. The settings on record: read-out: IC50 (concentration that inhibits cell proliferation by 50%). How it is done:
Reduced availability of the ternary complex causes inhibition of translation initiation and thereby of cell proliferation. […] The effects of N,N′-diarlyureas on the proliferation KLN mouse squamous cell carcinoma, CRL-2351 human breast, CRL-2813 human melanoma, A549 human lung and PC-3 human prostate cancer cell lines were tested.
To determine if N,N′-diarylureas inhibit cell proliferation by reducing the availability of the ternary complex, the effect of N,N′-diarylureas on proliferation of previously described transgenic PC-3 human prostate cancer cell lines expressing either the non-phosphorylatable eIF2α-S51A mutant or the eIF2α-WT was studied. […] Reducing the expression of HRI, the eIF2α kinase that mediates N,N′-diarlyurea induced phosphorylation of eIF2α similarly abrogates the effect of these agents on cell proliferation (FIGS. 15C and 15D).
Cell Growth Assay: Cell growth was measured by the SRB assay.

As for `O=C(Nc1cc(C(F)(F)F)cc(C(F)(F)F)c1)Nc1ncccc1O` [Compound 28], in data set [1], the Solubility in solvents entry was “not soluble in any solvent; also recorded: wasn't soluble in any solvent tested”. In addition, the “ATF-4 Cmax (concentration corresponding to the maximal activity)” value in data set [2] is 40 µM.
Take `O=C(Nc1ccc(Cl)c(Cl)c1)Nc1cc([N+](=O)[O-])ccc1Cl` [Compound 1527]: the “Active or inactive N,N′-diarylurea (ternary complex assay)” value in data set [3] was “inactive”. Also, the IC50 in data set [4] came to 8.3 µM.
